# Experimental data reported in US10034898B2, “Methods and systems for treatment of inflammatory diseases with nitric oxide” (priority 2012, dated 2018).
# Columns and labels:
# [1] = test system: micro-capillary blood flow to skin; assay: Laser Doppler capillary blood flow study, Example 5 (closed Hilltop chamber on forearm); format: in vivo, humans; conditions: applied to the skin at 1/10% in alcohol
# Description: This example illustrates delivery of nitric oxide formulations similar to those discussed herein in humans. In these studies, laser Doppler studies were performed on three human female subjects. […] The formulations used produce positive, almost immediate results when applied to the skin which, in these studies, was manifested by vasodilatation of the cutaneous vascular system.
# While nitric oxide has many physiological effects, the purpose of these studies was to measure physiological effects that would be relatively easy to determine, and which would be noninvasive. […] Nitric oxide is capable of […] the capillary bed, and thus, laser Doppler was selected.
# The formulation used in these studies contained nitric oxide dispersed in a lipid matrix. […] This provided a stable measuring device as determined by multiple normal evaluations of the capillary blood flow without treatment of nitric oxide.
# A known positive control, methyl nicotinate, was applied to the skin at a concentration of 1/10% in alcohol. […] The laser Doppler device accurately measured these parameters.
# In these studies, the participants were healthy females aged 30 to 55 years. They were in good health as determined by the medical history and were not taking any prescription medications. All study participants read and signed the informed consent statement prior to any study procedures being performed. […]
# [2] = test system: capillary circulation of the skin; assay: Laser Doppler circulation study in five human subjects, Example 7; format: in vivo; conditions: positive control formulation containing 0.1% methyl nicotinate, vs untreated skin
# Text: This example illustrates delivery of nitric oxide formulations to five human subjects, using procedures and formulations similar to those discussed in Example 5. Each person served as their own control for the testing. A Moor Instruments Laser Doppler was used to determine circulation. […] The formulations used produce positive, almost immediate results when applied to the skin which, in these studies, was manifested by vasodilatation of the cutaneous vascular system.
# For each subject, the following creams were applied: a negative control formulation (containing no NO), 0.010 gram of a 10,000 ppm NO formulation, 0.020 gram of a 10,000 ppm NO formulation, and a positive control formulation containing 0.1% methyl nicotinate. The formulations were prepared using procedures similar to those discussed in Example 1.
smiles,measurement,setting,value
COC(=O)c1cccnc1 [methyl nicotinate],laser Doppler response of positive control,[1],rapid response typical of the vasodilator
same,vasodilatation,[2],vasodilatation was observed
